Measured values taken from patent US20070082945A1, “Discodermolide compositions” (priority 2003, published 2007).
Values after ≈ are worked out from the molar mass of the structure shown.

Tests used:
[1] = Effect of organic solvent ratio variation on solubility; assay type: physicochemical; settings: propylene glycol/ethanol/normal saline mixture, aqueous with cosolvent or surfactant or cyclodextrin
[2] = Stability of propylene glycol infusion concentrates (HPLC, UV detector), Example 12; assay type: physicochemical
Procedure: The stability of propylene glycol infusion concentrates comprising discodermolide at different concentrations and various temperatures is determined. The stability is analyzed by determining formation of degradation products in each of the infusion concentrates as a function of time and temperature. Each sample is analyzed by HPLC with a UV detector. […] Under accelerated conditions, the levels of impurities increased at both 25° C./60% relative humidity (RH) and 45° C./60% RH.

purified tubulin = settings: among the compounds known to induce polymerization; cited from earlier work
[3] = Solubility and stability in 40% PG/10% ethanol/50% normal saline with hydrotropic agents; assay type: physicochemical; settings: aqueous with cosolvent or surfactant or cyclodextrin, read-out: Discodermolide Solubility
Description: The solubility and stability of discodermolide in 40% propylene glycol/10% ethanol 50% normal saline diluted with hydrotropic agents is shown in Table 7.

[4] = Precipitation on direct i.v. infusion followed by normal saline flush; settings: direct i.v. infusion into the vein followed by a normal saline flush
Procedure: Preferably the infusion solution of the present invention is prepared by mixing the infusion concentrate with a diluent, such as 16.3% w/v ethanol in saline in a suitable container. A preferred formulation comprises 1 mL of 2 mg/mL infusion concentrate diluted with 1.6 mL of 16.3% w/v ethanol in saline to yield an infusion solution containing 0.77 mg/mL discodermolide in 40% propylene glycol, 10% ethanol and 50% normal saline. This solution is administered via i.v. infusion, or push into Y tubing containing a 0.9% normal saline drip, directly into the vein and the drug solution residue in the tubing will be flushed with normal saline. The volume of discodermolide solution given via i.v. push will vary from 0.3 mL (at the starting does of 0.2 mg or 0.13 mg/m^2) to 26 mL (for a dose of 20 mg or 11.43 mg/m^2) or 43 mL (for a dose of 33 mg or 19.2 mg/m^2).

microtubules = settings: compared with paclitaxel; cited from earlier work
[5] = 0.6 mg/mL infusion concentrate in PG, 0-time
[6] = 0.6 mg/mL infusion concentrate in PG, 5° C., 0.5 month
[7] = 0.6 mg/mL infusion concentrate in PG, 5° C., 1 month
[8] = 0.6 mg/mL infusion concentrate in PG, 5° C., 2 months
[9] = 0.6 mg/mL infusion concentrate in PG, 5° C., 3 months
[10] = 0.6 mg/mL infusion concentrate in PG, 25° C./60% RH, 0.5 month
[11] = 0.6 mg/mL infusion concentrate in PG, 25° C./60% RH, 1 month
[12] = 0.6 mg/mL infusion concentrate in PG, 25° C./60% RH, 2 months
[13] = 0.6 mg/mL infusion concentrate in PG, 25° C./60% RH, 3 months
[14] = 0.6 mg/mL infusion concentrate in PG, 45° C./60% RH, 0.5 month
[15] = 0.6 mg/mL infusion concentrate in PG, 45° C./60% RH, 1 month
[16] = 2.0 mg/mL infusion concentrate in PG, 0-time
[17] = 2.0 mg/mL infusion concentrate in PG, 5° C., 0.5 month
[18] = 2.0 mg/mL infusion concentrate in PG, 5° C., 1 month
[19] = 2.0 mg/mL infusion concentrate in PG, 5° C., 2 months
[20] = 2.0 mg/mL infusion concentrate in PG, 5° C., 3 months
[21] = 2.0 mg/mL infusion concentrate in PG, 25° C./60% RH, 0.5 month
[22] = 2.0 mg/mL infusion concentrate in PG, 25° C./60% RH, 1 month
[23] = 2.0 mg/mL infusion concentrate in PG, 25° C./60% RH, 2 months
[24] = 2.0 mg/mL infusion concentrate in PG, 25° C./60% RH, 3 months
[25] = 2.0 mg/mL infusion concentrate in PG, 45° C./60% RH, 0.5 month
[26] = 2.0 mg/mL infusion concentrate in PG, 45° C./60% RH, 1 month
[27] = 3.0 mg/mL infusion concentrate in PG, 0-time
[28] = 3.0 mg/mL infusion concentrate in PG, 5° C., 0.5 month
[29] = 3.0 mg/mL infusion concentrate in PG, 5° C., 1 month
[30] = 3.0 mg/mL infusion concentrate in PG, 5° C., 2 months
[31] = 3.0 mg/mL infusion concentrate in PG, 5° C., 3 months
[32] = 3.0 mg/mL infusion concentrate in PG, 25° C./60% RH, 0.5 month
[33] = 3.0 mg/mL infusion concentrate in PG, 25° C./60% RH, 1 month
[34] = 3.0 mg/mL infusion concentrate in PG, 25° C./60% RH, 2 months
[35] = 3.0 mg/mL infusion concentrate in PG, 25° C./60% RH, 3 months
[36] = 3.0 mg/mL infusion concentrate in PG, 45° C./60% RH, 0.5 month
[37] = 3.0 mg/mL infusion concentrate in PG, 45° C./60% RH, 1 month

C=C/C=C\C(C)[C@H](OC(N)=O)[C@@H](C)[C@H](O)[C@@H](C)C/C(C)=C\C(C)C(O)[C@@H](C)/C=C\[C@@H](O)C[C@@H]1OC(=O)[C@H](C)C(O)C1C (single isomer, unassigned; (+)) [discodermolide, (+)-Discodermolide]
solubility ([1]; PG 38 / EtOH 9 / normal saline 53 (%, w/v)): 640 µg/mL
solubility ([1]; PG 38 / EtOH 9.5 / normal saline 52.5 (%, w/v)): 700 µg/mL
solubility ([1]; PG 40 / EtOH 8 / normal saline 52 (%, w/v)): 620 µg/mL
solubility ([1]; PG 40 / EtOH 9 / normal saline 51 (%, w/v)): 770 µg/mL
solubility ([1]; PG 40 / EtOH 9.6 / normal saline 50.4 (%, w/v)): 870 µg/mL
solubility ([1]; PG 40 / EtOH 10 / normal saline 50 (%, w/v)): 960 µg/mL
Assay [2, 5]: 100.4 % label claim
Total Impurities [2, 5]: 0.18%
Assay [2, 6]: 103.2 % label claim
Total Impurities [2, 6]: 0.16%
Assay [2, 7]: 102.6 % label claim
Total Impurities [2, 7]: 0.19%
Assay [2, 8]: 103.3 % label claim
Total Impurities [2, 8]: 0.27%
Assay [2, 9]: 103.8 % label claim
Total Impurities [2, 9]: 0.29%
Assay [2, 10]: 102.8 % label claim
Total Impurities [2, 10]: 0.65%
Assay [2, 11]: 101.9 % label claim
Total Impurities [2, 11]: 1.08%
Assay [2, 12]: 102.5 % label claim
Total Impurities [2, 12]: 1.18%
Assay [2, 13]: 102.4 % label claim
Total Impurities [2, 13]: 1.43%
Assay [2, 14]: 102.0 % label claim
Total Impurities [2, 14]: 1.49%
Assay [2, 15]: 101.6 % label claim
Total Impurities [2, 15]: 1.91%
Assay [2, 16]: 99.9 % label claim
Total Impurities [2, 16]: 0.19%
Assay [2, 17]: 103.2 % label claim
Total Impurities [2, 17]: 0.16%
Assay [2, 18]: 100.5 % label claim
Total Impurities [2, 18]: 0.18%
Assay [2, 19]: 102.5 % label claim
Total Impurities [2, 19]: 0.18%
Assay [2, 20]: 101.0 % label claim
Total Impurities [2, 20]: 0.54%
Assay [2, 21]: 101.1 % label claim
Total Impurities [2, 21]: 0.55%
Assay [2, 22]: 99.6 % label claim
Total Impurities [2, 22]: 0.78%
Assay [2, 23]: 101.4 % label claim
Total Impurities [2, 23]: 1.18%
Assay [2, 24]: 100.9 % label claim
Total Impurities [2, 24]: 1.48%
Assay [2, 25]: 100.3 % label claim
Total Impurities [2, 25]: 1.17%
Assay [2, 26]: 100.0 % label claim
Total Impurities [2, 26]: 1.69%
Assay [2, 27]: 102.7 % label claim
Total Impurities [2, 27]: 0.19%
Assay [2, 28]: 101.5 % label claim
Total Impurities [2, 28]: 0.16%
Assay [2, 29]: 102.0 % label claim
Total Impurities [2, 29]: 0.19%
Assay [2, 30]: 104.1 % label claim
Total Impurities [2, 30]: 0.17%
Assay [2, 31]: 104.4 % label claim
Total Impurities [2, 31]: 0.29%
Assay [2, 32]: 102.4 % label claim
Total Impurities [2, 32]: 0.35%
Assay [2, 33]: 101.3 % label claim
Total Impurities [2, 33]: 0.52%
Assay [2, 34]: 103.1 % label claim
Total Impurities [2, 34]: 0.69%
Assay [2, 35]: 102.1 % label claim
Total Impurities [2, 35]: 0.69%
Assay [2, 36]: 100.9 % label claim
Total Impurities [2, 36]: 0.58%
Assay [2, 37]: 101.5 % label claim
Total Impurities [2, 37]: 0.70%
Levels of impurities under accelerated conditions ([2]; 25° C./60% RH and 45° C./60% RH): increased
Change in discodermolide content ([2]; PG infusion concentrates, after 3 months at 5° C.): No significant changes
Total impurity amounts ([2]; PG infusion concentrates, after 3 months at 5° C., versus proposed specification limit): < 2.0%
Potency to induce polymerization of purified tubulin (purified tubulin): the most potent
solubility ([3]; 40% PG/10% EtOH/4% benzoic acid in normal saline): 1900 µg/mL (≈ 3.2 mM)
solubility ([3]; 40% PG/10% EtOH/4% benzoic acid/1% benzyl alcohol in normal saline): 2200 µg/mL (≈ 3.7 mM)
solubility ([3]; propylene glycol/ethanol/normal saline mixture, 40% PG/10% EtOH in normal saline): 910 µg/mL (≈ 1.53 mM)
Precipitation on administration [4]: will not cause any precipitation
Effectiveness in mechanism-based assays (microtubules): more effective than paclitaxel
